The values below come from the supplement of paper PMC11208160.
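Note: IS621 bridge recombinase in Escherichia coli cells against a fixed T5 target plasmid.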

This data set in a line: recombinant UMI read abundance after kanamycin selection (control-corrected) (log10(CPM+1)); higher = more efficient recombination; extreme values may be limits of the assay; sequences stand for … in AGTGCAGAGAAAATCGGCCAGTTTTCTCTGCCTGCAGTCCGCATGCCGTGGGACCCCTTGGGTTCTAACCTGTTGCCTAGATTTATGCAGCGGACTGCCTTTCTCCCAAAGTGATAAACCGG…AGGTTGGTTTCACT; site = the 11-nt donor. The gist of the method: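 The measure is log10(CPM+1) for recombinant UMIs. These were PCR-amplified across the donor–target junction and sequenced after Escherichia coli carrying a donor and donor-binding-loop pair library and a target plasmid with T7-inducible IS621 bridge recombinase was plated on IPTG (0.07 mM) plus kanamycin or unselected. CPM were averaged over two replicates and scaled by control-derived factors.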
For the sequence “TCAGATACATGGACCGGTTTTCCCGGTAATCCGTATTTGCG (site TCAGACACTCG)”, the “recombinant UMI read abundance (log10)” value amounted to 0.812.
As for “TCAGATACATGGACCGGTTTTCCCGGTAATCCGTATTTGCG (site TCAGAGACTCG)”, the figure is 0.00723; as for “TCAGATACATGGACCGGTTTTCCCGGTAATCCGTATTTGCG (site TCAGATACTCG)”, 1.33.
On to “TCAGCTACATGGACCGGTTTTCCCGGTAATCCGTATTTGAG (site TCAGCTACTCT)”, for which the “recombinant UMI read abundance (log10)” value was determined as 0.878.
For the sequence “TCAGCTCCATGGACCGGTTTTCCCGGTAATCCGTATTTGGC (site TCAGCTCCTGC)”, the “recombinant UMI read abundance (log10)” value stood at 0.823.
In the case of “TCAGGCGCATGGACCGGTTTTCCCGGTAATCCGTATTTGGT (site TCAGGCGCTAC)”, the “recombinant UMI read abundance (log10)” value is 0.385.
Take “TCAGGTCCATGGACCGGTTTTCCCGGTAATCCGTATTTGAT (site TCAGGTCCTAT)”: the “recombinant UMI read abundance (log10)” value was found to be 1.68.
Take “TCAGTGTCATGGACCGGTTTTCCCGGTAATCCGTATTTGCT (site TCAGTGTCTAG)”: the “recombinant UMI read abundance (log10)” value is 2.58.
As for “TCATAATCATGGACCGGTTTTCCCGGTAATCCGTATTTGCA (site TCATAATCTTG)”, the figure is 2.3; as for “TCATAATCATGGACCGGTTTTCCCGGTAATCCGTATTTGCA (site TCATACTCTTG)”, 0.606; as for “TCATAATCATGGACCGGTTTTCCCGGTAATCCGTATTTGCA (site TCATAGTCTTG)”, 1.06.
Consider “TCATAATCATGGACCGGTTTTCCCGGTAATCCGTATTTGCA (site TCATATTCTTG)”, for which the “recombinant UMI read abundance (log10)” value was determined as 0.925.
Regarding “TCATACTCATGGACCGGTTTTCCCGGTAATCCGTATTTGAA (site TCATACTCTTA)”, the “recombinant UMI read abundance (log10)” value was determined as 0.
“TCATACTCATGGACCGGTTTTCCCGGTAATCCGTATTTGAA (site TCATACTCTTC)”: the “recombinant UMI read abundance (log10)” value was determined as 0.0134.
Consider “TCATACTCATGGACCGGTTTTCCCGGTAATCCGTATTTGAA (site TCATACTCTTG)”, for which the “recombinant UMI read abundance (log10)” value is 0.
As for “TCATACTCATGGACCGGTTTTCCCGGTAATCCGTATTTGAA (site TCATACTCTTT)”, the “recombinant UMI read abundance (log10)” value is 1.72.
As for “TCATATTCATGGACCGGTTTTCCCGGTAATCCGTATTTGCA (site TCATAATCTTG)”, the figure is 1.5; as for “TCATATTCATGGACCGGTTTTCCCGGTAATCCGTATTTGCA (site TCATACTCTTG)”, 1.3.
As to “TCATATTCATGGACCGGTTTTCCCGGTAATCCGTATTTGCA (site TCATAGTCTTG)”, the “recombinant UMI read abundance (log10)” value is 0.00995.
For the sequence “TCATATTCATGGACCGGTTTTCCCGGTAATCCGTATTTGCA (site TCATATTCTTG)”, the “recombinant UMI read abundance (log10)” value came to 0.476.
To “TCATCAACATGGACCGGTTTTCCCGGTAATCCGTATTTGGT (site TCATCAACTAC)” belongs 0.0136.
As for “TCATCCTCATGGACCGGTTTTCCCGGTAATCCGTATTTGCA (site TCATACTCTTG)”, the “recombinant UMI read abundance (log10)” value was 0.933.
With “TCATCCTCATGGACCGGTTTTCCCGGTAATCCGTATTTGCA (site TCATCCTCTTG)”, the “recombinant UMI read abundance (log10)” value was found to be 0.741.
Regarding “TCATCCTCATGGACCGGTTTTCCCGGTAATCCGTATTTGCA (site TCATGCTCTTG)”, the “recombinant UMI read abundance (log10)” value was 0.00381.
Turning to “TCATCCTCATGGACCGGTTTTCCCGGTAATCCGTATTTGCA (site TCATTCTCTTG)”, the “recombinant UMI read abundance (log10)” value amounted to 0.
“TCATCCTCATGGACCGGTTTTCCCGGTAATCCGTATTTGGC (site TCATCCTCTGC)”: the “recombinant UMI read abundance (log10)” value came out at 0.
Regarding “TCATGCTCATGGACCGGTTTTCCCGGTAATCCGTATTTGCA (site TCATACTCTTG)”, the “recombinant UMI read abundance (log10)” value was 0.466.
As for “TCATGCTCATGGACCGGTTTTCCCGGTAATCCGTATTTGCA (site TCATCCTCTTG)”, the figure is 0.
Turning to “TCATGCTCATGGACCGGTTTTCCCGGTAATCCGTATTTGCA (site TCATGCTCTTG)”, the “recombinant UMI read abundance (log10)” value amounted to 0.764.
Turning to “TCATGCTCATGGACCGGTTTTCCCGGTAATCCGTATTTGCA (site TCATTCTCTTG)”, the “recombinant UMI read abundance (log10)” value was 0.
“TCCAAATCATGGACCGGTTTTCCCGGTAATCCGTATTTGCC (site TCCAAATCTGG)”: the “recombinant UMI read abundance (log10)” value turned out to be 0.
“TCCAAATCATGGACCGGTTTTCCCGGTAATCCGTATTTGCC (site TCCAACTCTGG)”: the “recombinant UMI read abundance (log10)” value stood at 0.
“TCCAAATCATGGACCGGTTTTCCCGGTAATCCGTATTTGCC (site TCCAAGTCTGG)”: the “recombinant UMI read abundance (log10)” value stood at 0.
As for “TCCAAATCATGGACCGGTTTTCCCGGTAATCCGTATTTGCC (site TCCAATTCTGG)”, the figure is 0; as for “TCCAACGCATGGACCGGTTTTCCCGGTAATCCGTATTTGCG (site TCCAACGCTCG)”, 0.0127.
To “TCCAACGCATGGACCGGTTTTCCCGGTAATCCGTATTTGCG (site TCCACCGCTCG)” belongs 0; to “TCCAACGCATGGACCGGTTTTCCCGGTAATCCGTATTTGCG (site TCCAGCGCTCG)”, 0; to “TCCAACGCATGGACCGGTTTTCCCGGTAATCCGTATTTGCG (site TCCATCGCTCG)”, 0.00881.
For “TCCAAGGCATGGACCGGTTTTCCCGGTAATCCGTATTTGTC (site TCCAAGGCTGA)”, the “recombinant UMI read abundance (log10)” value is 0.
“TCCAATGCATGGACCGGTTTTCCCGGTAATCCGTATTTGCC (site TCCAATACTGG)”: the “recombinant UMI read abundance (log10)” value is 0.
Take “TCCAATGCATGGACCGGTTTTCCCGGTAATCCGTATTTGCC (site TCCAATCCTGG)”: the “recombinant UMI read abundance (log10)” value is 0.
In the case of “TCCAATGCATGGACCGGTTTTCCCGGTAATCCGTATTTGCC (site TCCAATGCTGG)”, the “recombinant UMI read abundance (log10)” value was determined as 0.
On to “TCCAATGCATGGACCGGTTTTCCCGGTAATCCGTATTTGCC (site TCCAATTCTGG)”, for which the “recombinant UMI read abundance (log10)” value was found to be 0.
For the sequence “TCCAATTCATGGACCGGTTTTCCCGGTAATCCGTATTTGCA (site TCCAATTCTAG)”, the “recombinant UMI read abundance (log10)” value came to 0.
As for “TCCAATTCATGGACCGGTTTTCCCGGTAATCCGTATTTGCA (site TCCAATTCTCG)”, the figure is 0; as for “TCCAATTCATGGACCGGTTTTCCCGGTAATCCGTATTTGCA (site TCCAATTCTGG)”, 0.
As to “TCCAATTCATGGACCGGTTTTCCCGGTAATCCGTATTTGCA (site TCCAATTCTTG)”, the “recombinant UMI read abundance (log10)” value stood at 0.
Turning to “TCCAATTCATGGACCGGTTTTCCCGGTAATCCGTATTTGCG (site TCCAATTCTAG)”, the “recombinant UMI read abundance (log10)” value amounted to 0.
To “TCCAATTCATGGACCGGTTTTCCCGGTAATCCGTATTTGCG (site TCCAATTCTCG)” belongs 0; to “TCCAATTCATGGACCGGTTTTCCCGGTAATCCGTATTTGCG (site TCCAATTCTGG)”, 0; to “TCCAATTCATGGACCGGTTTTCCCGGTAATCCGTATTTGCG (site TCCAATTCTTG)”, 0.
Turning to “TCCACCACATGGACCGGTTTTCCCGGTAATCCGTATTTGCG (site TCCACCACTCG)”, the “recombinant UMI read abundance (log10)” value stood at 0.0102.
